Reference: US9422297B2, “Tricyclic compounds having cytostatic and/or cytotoxic activity and methods of use thereof” (Duquesne University of the Holy Ghost, priority 2007, dated 2016)

What was measured:
A431 cytotoxicity assay = format: cell-based; conditions: human, A431 cells; Table 3
B16-F10 tumors = experiment: B16-F10 tumor model in vivo; conditions: athymic mice, 25 mg/kg three times weekly, vs methotrexate and sham
HT29 = experiment: NCI In-Vitro Testing, Colon Cancer; format: cell-based
T-47D = experiment: NCI In-Vitro Testing, Breast Cancer; format: cell-based
NCI-H322M = experiment: NCI In-Vitro Testing, Non-Small Cell Lung Cancer; format: cell-based
SR = experiment: NCI In-Vitro Testing, Leukemia; format: cell-based
A498 = experiment: NCI In-Vitro Testing, Renal Cancer; format: cell-based
SNB-19 = experiment: NCI In-Vitro Testing, CNS Cancer; format: cell-based
SK-MEL-5 = experiment: NCI In-Vitro Testing, Melanoma; format: cell-based
NCI-H522 = experiment: NCI In-Vitro Testing, Non-Small Cell Lung Cancer; format: cell-based
60 tumor cell line panel = experiment: NCI 60 preclinical in vitro tumor screening panel; conditions: read-out: GI50 across tumor panel
SF-539 = experiment: NCI In-Vitro Testing, CNS Cancer; format: cell-based
HOP-52 = experiment: NCI In-Vitro Testing, Non-Small Cell Lung Cancer; format: cell-based
785-0 = experiment: NCI In-Vitro Testing, Renal Cancer; format: cell-based
OVCAR-6 = experiment: NCI In-Vitro Testing, Ovarian Cancer; format: cell-based
SK-MEL-2 = experiment: NCI In-Vitro Testing, Melanoma; format: cell-based
UACC-62 = experiment: NCI In-Vitro Testing, Melanoma; format: cell-based
KM12 = experiment: NCI In-Vitro Testing, Colon Cancer; format: cell-based
IGROV1 = experiment: NCI In-Vitro Testing, Ovarian Cancer; format: cell-based
COLO 205 = experiment: NCI In-Vitro Testing, Colon Cancer; format: cell-based

Nc1nc2c(c(Nc3ccc(Cl)cc3)n1)-c1ccccc1C2 [AAG145-136]
IC50 (A431 cytotoxicity assay): 9.7 µM | antitumor activity (tumor volume, tumor growth rate) (B16-F10 tumors): potent antitumor activity | GI50 (HT29): 9.39E−8 Molar | LC50 (HT29): >1.00E−4 Molar | TGI (HT29): >1.00E−4 Molar | Percent Growth (HT29; Log10 Concentration −4.0 Molar): 2% | Percent Growth (HT29; Log10 Concentration −5.0 Molar): 7% | Percent Growth (HT29; Log10 Concentration −6.0 Molar): 21% | Percent Growth (HT29; Log10 Concentration −7.0 Molar): 49% | Percent Growth (HT29; Log10 Concentration −8.0 Molar): 94% | GI50 (T-47D): 2.90E−6 Molar | LC50 (T-47D): >1.00E−4 Molar | TGI (T-47D): >1.00E−4 Molar | Percent Growth (T-47D; Log10 Concentration −4.0 Molar): 27% | Percent Growth (T-47D; Log10 Concentration −5.0 Molar): 34% | Percent Growth (T-47D; Log10 Concentration −6.0 Molar): 63% | Percent Growth (T-47D; Log10 Concentration −7.0 Molar): 83% | Percent Growth (T-47D; Log10 Concentration −8.0 Molar): 88% | GI50 (NCI-H322M): 1.35E−6 Molar | LC50 (NCI-H322M): >1.00E−4 Molar | TGI (NCI-H322M): >1.00E−4 Molar | Percent Growth (NCI-H322M; Log10 Concentration −4.0 Molar): 39% | Percent Growth (NCI-H322M; Log10 Concentration −5.0 Molar): 32% | Percent Growth (NCI-H322M; Log10 Concentration −6.0 Molar): 53% | Percent Growth (NCI-H322M; Log10 Concentration −7.0 Molar): 101% | Percent Growth (NCI-H322M; Log10 Concentration −8.0 Molar): 103% | GI50 (SR): 4.84E−8 Molar | LC50 (SR): >1.00E−4 Molar | TGI (SR): >1.00E−4 Molar | Percent Growth (SR; Log10 Concentration −4.0 Molar): 2% | Percent Growth (SR; Log10 Concentration −5.0 Molar): 12% | Percent Growth (SR; Log10 Concentration −6.0 Molar): 22% | Percent Growth (SR; Log10 Concentration −7.0 Molar): 41% | Percent Growth (SR; Log10 Concentration −8.0 Molar): 70% | GI50 (A498): 2.49E−6 Molar | LC50 (A498): >1.00E−4 Molar | TGI (A498): 2.85E−5 Molar | Percent Growth (A498; Log10 Concentration −4.0 Molar): −17% | Percent Growth (A498; Log10 Concentration −5.0 Molar): 14% | Percent Growth (A498; Log10 Concentration −6.0 Molar): 74% | Percent Growth (A498; Log10 Concentration −7.0 Molar): 91% | Percent Growth (A498; Log10 Concentration −8.0 Molar): 101% | GI50 (SNB-19): 1.13E−7 Molar | LC50 (SNB-19): >1.00E−4 Molar | TGI (SNB-19): >1.00E−4 Molar | Percent Growth (SNB-19; Log10 Concentration −4.0 Molar): 6% | Percent Growth (SNB-19; Log10 Concentration −5.0 Molar): 17% | Percent Growth (SNB-19; Log10 Concentration −6.0 Molar): 28% | Percent Growth (SNB-19; Log10 Concentration −7.0 Molar): 51% | Percent Growth (SNB-19; Log10 Concentration −8.0 Molar): 100% | GI50 (SK-MEL-5): 5.13E−7 Molar | LC50 (SK-MEL-5): >1.00E−4 Molar | TGI (SK-MEL-5): 1.59E−5 Molar | Percent Growth (SK-MEL-5; Log10 Concentration −4.0 Molar): −45% | Percent Growth (SK-MEL-5; Log10 Concentration −5.0 Molar): 11% | Percent Growth (SK-MEL-5; Log10 Concentration −6.0 Molar): 35% | Percent Growth (SK-MEL-5; Log10 Concentration −7.0 Molar): 87% | Percent Growth (SK-MEL-5; Log10 Concentration −8.0 Molar): 95% | GI50 (NCI-H522): 6.22E−7 Molar | LC50 (NCI-H522): >1.00E−4 Molar | TGI (NCI-H522): 3.88E−5 Molar | Percent Growth (NCI-H522; Log10 Concentration −4.0 Molar): −10% | Percent Growth (NCI-H522; Log10 Concentration −5.0 Molar): 14% | Percent Growth (NCI-H522; Log10 Concentration −6.0 Molar): 40% | Percent Growth (NCI-H522; Log10 Concentration −7.0 Molar): 89% | Percent Growth (NCI-H522; Log10 Concentration −8.0 Molar): 96% | GI50 (60 tumor cell line panel): 0.0312 to 1 µM | GI50 (SF-539): 3.81E−7 Molar | LC50 (SF-539): >1.00E−4 Molar | TGI (SF-539): >1.00E−4 Molar | Percent Growth (SF-539; Log10 Concentration −4.0 Molar): 2% | Percent Growth (SF-539; Log10 Concentration −5.0 Molar): 20% | Percent Growth (SF-539; Log10 Concentration −6.0 Molar): 31% | Percent Growth (SF-539; Log10 Concentration −7.0 Molar): 77% | Percent Growth (SF-539; Log10 Concentration −8.0 Molar): 101% | GI50 (HOP-52): 6.54E−7 Molar | LC50 (HOP-52): >1.00E−4 Molar | TGI (HOP-52): >1.00E−4 Molar | Percent Growth (HOP-52; Log10 Concentration −4.0 Molar): 32% | Percent Growth (HOP-52; Log10 Concentration −5.0 Molar): 25% | Percent Growth (HOP-52; Log10 Concentration −6.0 Molar): 40% | Percent Growth (HOP-52; Log10 Concentration −7.0 Molar): 94% | Percent Growth (HOP-52; Log10 Concentration −8.0 Molar): 97% | GI50 (785-0): 5.14E−7 Molar | LC50 (785-0): >1.00E−4 Molar | TGI (785-0): >1.00E−4 Molar | Percent Growth (785-0; Log10 Concentration −4.0 Molar): 16% | Percent Growth (785-0; Log10 Concentration −5.0 Molar): 26% | Percent Growth (785-0; Log10 Concentration −6.0 Molar): 31% | Percent Growth (785-0; Log10 Concentration −7.0 Molar): 97% | Percent Growth (785-0; Log10 Concentration −8.0 Molar): 102% | GI50 (OVCAR-6): 2.16E−7 Molar | LC50 (OVCAR-6): >1.00E−4 Molar | TGI (OVCAR-6): >1.00E−4 Molar | Percent Growth (OVCAR-6; Log10 Concentration −4.0 Molar): 18% | Percent Growth (OVCAR-6; Log10 Concentration −5.0 Molar): 25% | Percent Growth (OVCAR-6; Log10 Concentration −6.0 Molar): 36% | Percent Growth (OVCAR-6; Log10 Concentration −7.0 Molar): 57% | Percent Growth (OVCAR-6; Log10 Concentration −8.0 Molar): 102% | GI50 (SK-MEL-2): 5.58E−7 Molar | LC50 (SK-MEL-2): >1.00E−4 Molar | TGI (SK-MEL-2): >1.00E−4 Molar | Percent Growth (SK-MEL-2; Log10 Concentration −4.0 Molar): 16% | Percent Growth (SK-MEL-2; Log10 Concentration −5.0 Molar): 27% | Percent Growth (SK-MEL-2; Log10 Concentration −6.0 Molar): 35% | Percent Growth (SK-MEL-2; Log10 Concentration −7.0 Molar): 95% | Percent Growth (SK-MEL-2; Log10 Concentration −8.0 Molar): 98% | GI50 (UACC-62): 6.41E−7 Molar | LC50 (UACC-62): >1.00E−4 Molar | TGI (UACC-62): >1.00E−4 Molar | Percent Growth (UACC-62; Log10 Concentration −4.0 Molar): 32% | Percent Growth (UACC-62; Log10 Concentration −5.0 Molar): 27% | Percent Growth (UACC-62; Log10 Concentration −6.0 Molar): 38% | Percent Growth (UACC-62; Log10 Concentration −7.0 Molar): 99% | Percent Growth (UACC-62; Log10 Concentration −8.0 Molar): 99% | GI50 (KM12): 3.30E−7 Molar | LC50 (KM12): >1.00E−4 Molar | TGI (KM12): >1.00E−4 Molar | Percent Growth (KM12; Log10 Concentration −4.0 Molar): 5% | Percent Growth (KM12; Log10 Concentration −5.0 Molar): 7% | Percent Growth (KM12; Log10 Concentration −6.0 Molar): 25% | Percent Growth (KM12; Log10 Concentration −7.0 Molar): 77% | Percent Growth (KM12; Log10 Concentration −8.0 Molar): 98% | GI50 (IGROV1): 2.87E−7 Molar | LC50 (IGROV1): >1.00E−4 Molar | TGI (IGROV1): >1.00E−4 Molar | Percent Growth (IGROV1; Log10 Concentration −4.0 Molar): 11% | Percent Growth (IGROV1; Log10 Concentration −5.0 Molar): 6% | Percent Growth (IGROV1; Log10 Concentration −6.0 Molar): 24% | Percent Growth (IGROV1; Log10 Concentration −7.0 Molar): 72% | Percent Growth (IGROV1; Log10 Concentration −8.0 Molar): 93% | GI50 (COLO 205): 6.38E−7 Molar | LC50 (COLO 205): >1.00E−4 Molar | TGI (COLO 205): >1.00E−4 Molar | Percent Growth (COLO 205; Log10 Concentration −4.0 Molar): 11% | Percent Growth (COLO 205; Log10 Concentration −5.0 Molar): 11% | Percent Growth (COLO 205; Log10 Concentration −6.0 Molar): 41% | Percent Growth (COLO 205; Log10 Concentration −7.0 Molar): 86% | Percent Growth (COLO 205; Log10 Concentration −8.0 Molar): 99%
